Measurements: PubChem BioAssay (NCI)
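Grown in 96-well plates, cells were treated for 48 hours with each compound at five concentrations. Insufficient inhibition: endpoint recorded as highest concentration tested. TGI marks complete inhibition of growth.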 Calls of active or inactive are those of the source. No stated cut-off is given here; in the data, active means GI50 below about 0.43 µM; inactive means the rest.

Tests used:
Assay in all cases: NCI-60 cell line screen, 48 h
[1] = tested on: PC-3 prostate
[2] = tested on: LOX IMVI melanoma
[3] = tested on: SN12C renal
[4] = tested on: OVCAR-3 ovarian
[5] = tested on: HCT-15 colon
[6] = tested on: SF-295 CNS
[7] = tested on: SF-539 CNS
[8] = tested on: RXF 393 renal
[9] = tested on: HOP-62 NSCLC
[10] = tested on: OVCAR-8 ovarian
[11] = tested on: UACC-257 melanoma
[12] = tested on: NCI-H522 lung
[13] = tested on: HS 578T breast
[14] = tested on: SK-MEL-2 melanoma
[15] = tested on: MDA-N
[16] = tested on: OVCAR-4 ovarian
[17] = tested on: 786-0 renal
[18] = tested on: SW-620 colon
[19] = tested on: BT-549 breast
[20] = tested on: MALME-3M melanoma
[21] = tested on: SK-OV-3 ovarian
[22] = tested on: COLO 205 colon
[23] = tested on: A498 renal
[24] = tested on: ACHN renal
[25] = tested on: RPMI-8226 leukemia
[26] = tested on: MOLT-4 leukemia
[27] = tested on: K-562 leukemia
[28] = tested on: MCF7 breast
[29] = tested on: SK-MEL-28 melanoma
[30] = tested on: UO-31 renal
[31] = tested on: CAKI-1 renal
[32] = tested on: KM12 colon
[33] = tested on: MDA-MB-231 breast
[34] = tested on: UACC-62 melanoma
[35] = tested on: SNB-75 CNS
[36] = tested on: HCT-116 colon
[37] = tested on: SR leukemia
[38] = tested on: HL-60(TB) leukemia
[39] = tested on: HCC-2998 colon
[40] = tested on: EKVX NSCLC
[41] = tested on: NCI-H226 lung
[42] = tested on: MDA-MB-435
[43] = tested on: T-47D breast
[44] = tested on: DU-145 prostate
[45] = tested on: U251 CNS
[46] = tested on: HT29 colon
[47] = tested on: CCRF-CEM leukemia
[48] = tested on: M14 melanoma
[49] = tested on: NCI-H23 lung
[50] = tested on: SF-268 CNS
[51] = tested on: OVCAR-5 ovarian
[52] = tested on: SNB-19 CNS
[53] = tested on: TK-10 renal
[54] = tested on: NCI-H460 lung
[55] = tested on: A549 NSCLC
[56] = tested on: IGROV1 ovarian
[57] = tested on: SK-MEL-5 melanoma
[58] = tested on: HOP-92 NSCLC

C[C@H](N)C(O)C/C=C\C/C=C\C/C=C\C/C=C\C/C=C\C/C=C\CCCCCCC(O)[C@H](C)N (some centres not stated)
outcome [1]: inactive
outcome [2]: inactive
outcome [3]: inactive
outcome [4]: inactive
outcome [5]: inactive
outcome [6]: inactive
outcome [7]: inactive
outcome [8]: inactive
outcome [9]: inactive
outcome [10]: inactive
outcome [11]: inactive
outcome [12]: inactive
outcome [13]: inactive
outcome [14]: inactive
outcome [15]: inactive
outcome [16]: inactive
outcome [17]: inactive
outcome [18]: inactive
outcome [19]: inactive
outcome [20]: inactive
outcome [21]: inactive
outcome [22]: inactive
outcome [23]: inactive
outcome [24]: inactive
outcome [25]: inactive
outcome [26]: inactive
outcome [27]: inactive
outcome [28]: inactive
outcome [29]: inactive
outcome [30]: inactive
outcome [31]: inactive
outcome [32]: inactive
outcome [33]: inactive
outcome [34]: inactive
outcome [35]: inactive
outcome [36]: inactive
outcome [37]: inactive
outcome [38]: inactive
outcome [39]: inactive
outcome [40]: inactive
outcome [41]: inactive
outcome [42]: inactive
outcome [43]: inactive
outcome [44]: inactive
outcome [45]: inactive
outcome [46]: inactive
outcome [47]: inactive
outcome [48]: inactive
outcome [49]: inactive
outcome [50]: inactive
outcome [51]: inactive
outcome [52]: inactive
outcome [53]: inactive
outcome [54]: inactive

Cc1nn(C(=O)Cc2ccccc2)c2c1C(c1ccc3ccccc3c1O)SC(N)=N2 (configuration not stated)
TGI [1]: > 100 µM
TGI [2]: > 100 µM
TGI [3]: > 100 µM
TGI [5]: > 100 µM
TGI [6]: > 100 µM
TGI [7]: > 100 µM
TGI [9]: > 100 µM
TGI [10]: > 100 µM
TGI [11]: > 100 µM
TGI [12]: > 100 µM
TGI [13]: > 100 µM
TGI [15]: > 100 µM
TGI [18]: > 100 µM
TGI [19]: > 100 µM
TGI [21]: > 100 µM
TGI [22]: > 100 µM
TGI [23]: > 100 µM
TGI [24]: > 100 µM
TGI [25]: > 100 µM
TGI [26]: > 100 µM
TGI [27]: > 100 µM
TGI [28]: > 100 µM
TGI [29]: > 100 µM
TGI [30]: > 100 µM
TGI [31]: > 100 µM
TGI [32]: > 100 µM
TGI [33]: > 100 µM
TGI [34]: > 100 µM
TGI [55]: > 100 µM
TGI [35]: > 100 µM
TGI [36]: > 100 µM
TGI [37]: > 100 µM
TGI [56]: > 100 µM
TGI [38]: > 100 µM
TGI [39]: > 100 µM
TGI [40]: > 100 µM
TGI [41]: > 100 µM
TGI [42]: > 100 µM
TGI [43]: > 100 µM
TGI [44]: > 100 µM
TGI [46]: > 100 µM
TGI [47]: 64.2 µM
TGI [57]: > 100 µM
TGI [48]: > 100 µM
TGI [49]: > 100 µM
TGI [50]: > 100 µM
TGI [52]: > 100 µM
TGI [53]: > 100 µM
TGI [54]: > 100 µM

CN1CCN(C(=S)N(C(=O)c2cccs2)c2ccccc2)CC1
TGI [2]: > 100 µM
TGI [3]: > 100 µM
TGI [4]: > 100 µM
TGI [5]: > 100 µM
TGI [8]: > 100 µM
TGI [10]: > 100 µM
TGI [11]: > 100 µM
TGI [12]: > 100 µM
TGI [13]: > 100 µM
TGI [14]: > 100 µM
TGI [15]: > 100 µM
TGI [16]: > 100 µM
TGI [17]: > 100 µM
TGI [18]: > 100 µM
TGI [58]: > 100 µM
TGI [19]: > 100 µM
TGI [20]: > 100 µM
TGI [22]: > 100 µM
TGI [24]: > 100 µM
TGI [25]: > 100 µM
TGI [26]: > 100 µM
TGI [27]: > 100 µM
TGI [28]: > 100 µM
TGI [29]: > 100 µM
TGI [30]: > 100 µM
TGI [32]: > 100 µM
TGI [33]: > 100 µM
TGI [34]: > 100 µM
TGI [55]: > 100 µM
TGI [35]: > 100 µM
TGI [37]: > 100 µM
TGI [56]: > 100 µM
TGI [38]: > 100 µM
TGI [39]: > 100 µM
TGI [41]: > 100 µM
TGI [42]: > 100 µM
TGI [43]: > 100 µM
TGI [44]: > 100 µM
TGI [45]: > 100 µM
TGI [46]: > 100 µM
TGI [47]: > 100 µM
TGI [57]: > 100 µM
TGI [48]: > 100 µM
TGI [49]: > 100 µM
TGI [50]: > 100 µM
TGI [51]: > 100 µM
TGI [52]: > 100 µM
TGI [53]: > 100 µM
TGI [54]: > 100 µM
